Results as given in patent US20240000927A1, “IMMUNOMODULATORY AGENT” (THE QUEEN'S UNIVERSITY OF BELFAST, priority 2020, published 2024).

How the values were obtained:
RAW 264.7 macrophages = test: Nitrite concentration (Griess reaction) in macrophage culture medium; assay type: cell-based, murine; conditions: LPS 1 ng/ml, stated to be the same as extracts at 1 mg/ml
Excerpt: Induction of iNOS results in the endogenous production of nitric oxide (NO) by conversion of L-arginine to citrulline (Murad 1998). NO is a key facilitator of inflammatory responses, and is only produced by macrophages activated through the classical pathway (ligation of TLRs) (Mosser 2003). Due to the highly reactive nature of NO, its formation is commonly indirectly measured (i.e. by measuring nitrite (NO2-), one of two primary stable non-volatile breakdown products of NO).
Nitrite (NO2—) concentration in culture medium was measured using the Griess reaction method, in accordance with the protocol provided by the manufacturer (Life Technologies, Paisley). […] The concentration of NO2- was measured colourimetrically at λ550 nm using a Tecan Safire2 microplate reader.
A standard solution of 0.1M sodium nitrite (NaNO2) was used to make serial dilutions in the range of 100-1 μM to quantitate NO2- concentrations by means of a standard curve.
To determine the amount of produced NO2— produced, 50 μl of medium from each well of the 96-well microtitre plate was aspirated post incubation and transferred to a fresh 96-well microtiter plate to which a solution of 50 μl sulfanilic acid 1% (10 mg/ml) in 5% phosphoric acid was added and incubated for 10 minutes at room temperature. […] The concentration of NO2— was measured colourimetrically (λ550 nm) using a Tecan Safire2 microplate reader. […]

[1] = biological target: T1, Toll-like receptor (TLR) 4 (Mus musculus, UniProt Q9QUK6); test: TLR 4 inhibition assay with TAK-242 (nitrite production by macrophages); assay type: cell-based, murine; set-up: endogenous in cells; host or cells: RAW 264.7 murine macrophages; conditions: TAK-242 10 nM, 18 h, RAW 264.7
T1 sequence (Q9QUK6 26-835): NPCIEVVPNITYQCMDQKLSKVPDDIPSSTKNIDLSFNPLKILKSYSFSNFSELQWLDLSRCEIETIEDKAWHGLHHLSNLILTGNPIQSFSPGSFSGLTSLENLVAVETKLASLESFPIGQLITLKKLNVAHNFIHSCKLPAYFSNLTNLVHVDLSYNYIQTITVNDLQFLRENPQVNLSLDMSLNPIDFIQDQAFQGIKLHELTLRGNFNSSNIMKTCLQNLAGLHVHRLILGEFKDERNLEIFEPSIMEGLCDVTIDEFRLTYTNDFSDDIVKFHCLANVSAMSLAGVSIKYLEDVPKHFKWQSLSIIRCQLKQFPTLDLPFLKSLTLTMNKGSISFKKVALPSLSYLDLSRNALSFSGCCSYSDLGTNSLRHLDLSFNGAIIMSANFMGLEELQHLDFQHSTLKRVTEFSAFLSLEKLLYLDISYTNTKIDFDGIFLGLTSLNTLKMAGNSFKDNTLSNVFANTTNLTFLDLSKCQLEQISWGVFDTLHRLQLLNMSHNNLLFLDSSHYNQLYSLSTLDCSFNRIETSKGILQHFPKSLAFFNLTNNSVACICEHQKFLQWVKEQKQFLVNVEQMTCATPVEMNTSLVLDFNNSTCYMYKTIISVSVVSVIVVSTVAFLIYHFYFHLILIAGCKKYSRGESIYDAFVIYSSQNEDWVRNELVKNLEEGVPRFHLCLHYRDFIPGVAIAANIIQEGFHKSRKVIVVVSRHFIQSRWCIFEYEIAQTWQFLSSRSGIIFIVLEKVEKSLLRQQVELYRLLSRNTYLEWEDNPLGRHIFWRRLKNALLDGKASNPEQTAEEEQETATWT
Excerpt: TAK-242 is a small molecule which is a specific inhibitor of Toll-like receptor (TLR) 4, which inhibits the production of pro-inflammatory mediators by binding to Cys747 in the intracellular domain of TLR4. This prevents interactions between TLR4 and its adaptor molecules Toll/IL-1 receptor domain containing adaptor protein (TIRAP) and Toll/IL-1 receptor domain-containing adaptor protein inducing interferon-β-related adaptor molecule (TRAM). Consequently, LPS-induced signal transduction is inhibited, including downstream signalling transduction that results in the production of pro-inflammatory cytokines (Matsunaga et al. 2011). […] RAW 264.7 were prepared as described in Example 3 and subsequently seeded at a density of 1×10^5 cells/well in two 96-well microtitre plates. S. cordifolia fractions (100 l) SCAF 0 and SCAF 5 (1-0.001 mg/ml) were added in triplicate to one of the plates. The positive control was 1 ng/ml LPS and the negative control was 100 μl DMEM medium. The remaining plate was arranged in an identical manner. However, the fractions SCAF 0 and SCAF 5 and positive (LPS 1 ng/ml) and negative (medium) all contained TAK-242 at a concentration 10 nM. Plates were incubated for 18 h in an incubator at 5% CO2 at 37° C. After incubation, nitrite concentrations were determined using the Griess reagent.

[2] = biological target: T1, Toll-like receptor (TLR) 4; conditions: reported, Ii et al. 2006; cited from earlier work

| Compound | levels of NO2− (RAW 264.7 macrophages) | activation of macrophages (nitrite production) in the presence of TAK-242 [1] | IC50 [2] |
| --- | --- | --- | --- |
| Lipopolysaccharide [LPS] | 60 to 80 µmol/mL | inactivated | – |
| CCOC(=O)C1=CCCC[C@H]1S(=O)(=O)Nc1ccc(F)cc1Cl [TAK-242] | – | – | 1.1 to 11 nM |
